Our source for the EC50 values is patent publication US9409866B2, “Pyridine-2-amides useful as CB2 agonists” (Hoffmann-La Roche Inc., priority 2012, dated 2016).

For one test, the target named is human CB1 receptors (Homo sapiens (Human), UniProt P21554). Briefly: functional cAMP assay, CHO cells expressing human CB1. In kind it is cell-based. The note with it: functional cAMP assay, CHO cells expressing human CB1; read-out: Human CB1 EC50. The method in brief:
(§1)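 CHO cells expressing human CB1 or CB2 were preincubated 30 min at 30 °C in Krebs Ringer bicarbonate with 1 mM IBMX, then exposed to compound 30 min at 30 °C. cAMP quantified by TR-FRET competition (Alexa700 antibody/ruthenium-cAMP) against a 10 μM–0.13 nM standard curve; EC50 derived.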
A general note: Cyclic AMP is a second messenger, typically raised through Gs and lowered through Gi signalling.

Another test concerns the target human CB2 receptors (Homo sapiens (Human), UniProt P34972). The test is described as follows: functional cAMP assay, CHO cells expressing human CB2. In kind it is cell-based. The note with it: read-out: Human CB2 EC50. The method in brief: as §1

Chain of human CB2 receptors (P34972 whole entry): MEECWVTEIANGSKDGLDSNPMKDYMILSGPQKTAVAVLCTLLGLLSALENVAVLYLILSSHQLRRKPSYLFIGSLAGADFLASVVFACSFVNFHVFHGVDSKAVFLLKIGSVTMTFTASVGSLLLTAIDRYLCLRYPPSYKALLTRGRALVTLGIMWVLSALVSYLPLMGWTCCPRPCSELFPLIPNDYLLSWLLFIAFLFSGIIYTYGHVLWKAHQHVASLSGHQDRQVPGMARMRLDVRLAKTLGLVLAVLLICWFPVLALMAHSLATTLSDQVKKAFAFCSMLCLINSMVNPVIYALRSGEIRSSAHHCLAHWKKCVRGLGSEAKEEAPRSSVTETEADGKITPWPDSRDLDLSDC
Chain of human CB1 receptors (P21554 whole entry): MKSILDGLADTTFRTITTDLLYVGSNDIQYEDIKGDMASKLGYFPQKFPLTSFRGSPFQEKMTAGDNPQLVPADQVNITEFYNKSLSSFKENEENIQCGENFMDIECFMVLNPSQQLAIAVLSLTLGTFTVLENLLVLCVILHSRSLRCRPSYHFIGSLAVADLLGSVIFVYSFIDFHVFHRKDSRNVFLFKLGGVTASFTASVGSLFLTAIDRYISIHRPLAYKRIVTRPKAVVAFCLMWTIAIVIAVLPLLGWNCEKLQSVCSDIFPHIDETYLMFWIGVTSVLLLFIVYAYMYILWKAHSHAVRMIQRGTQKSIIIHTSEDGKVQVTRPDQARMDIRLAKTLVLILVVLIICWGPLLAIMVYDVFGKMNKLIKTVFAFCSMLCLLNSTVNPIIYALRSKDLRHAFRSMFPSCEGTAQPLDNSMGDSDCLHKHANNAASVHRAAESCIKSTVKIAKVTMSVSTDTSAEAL

What is called EC50 is the concentration that produces a half-maximal response. On to `CNC(=O)C(NC(=O)c1cc(O[C@@H](C)C(F)(F)F)c(C2CC2)cn1)C(C)(C)O` (stereo partly drawn) [Example 252, 5-cyclopropyl-N-[3-hydroxy-3-methyl-1-(methylamino)-1-oxobutan-2-yl]-4-[(2S)-1,1,1-trifluoropropan-2-yl]oxypyridine-2-carboxamide], for which the 50% effective concentration (EC50) is over 10000 nM at human CB1 receptors and 344 nM on human CB2 receptors.
Consider `CNC(=O)C(NC(=O)c1cc(O[C@@H](C)C(F)(F)F)c(C2CC2)cn1)C(C)(C)O` (stereo partly drawn) [Example 253, 5-cyclopropyl-N-[3-hydroxy-3-methyl-1-(methylamino)-1-oxobutan-2-yl]-4-[(2S)-1,1,1-trifluoropropan-2-yl]oxypyridine-2-carboxamide], for which the EC50 is over 10000 nM on human CB1 receptors and 1.9 nM at human CB2 receptors.
With `Cc1nc(C(NC(=O)c2cc(O[C@@H](C)C(F)(F)F)c(C3CC3)cn2)C2(C)COC2)no1` (stereo partly drawn) [Example 254, 5-cyclopropyl-N-[(5-methyl-1,2,4-oxadiazol-3-yl)-(3-methyloxetan-3-yl)methyl]-4-[(2S)-1,1,1-trifluoropropan-2-yl]oxypyridine-2-carboxamide], the EC50 at human CB1 receptors was over 10000 nM; at human CB2 receptors it was 6.5 nM.
For the compound `Cc1nc(C(NC(=O)c2cc(O[C@@H](C)C(F)(F)F)c(C3CC3)cn2)C2(C)COC2)no1` (stereo partly drawn) [Example 255, 5-cyclopropyl-N-[(5-methyl-1,2,4-oxadiazol-3-yl)-(3-methyloxetan-3-yl)methyl]-4-[(2S)-1,1,1-trifluoropropan-2-yl]oxypyridine-2-carboxamide], the EC50 at human CB1 receptors was over 10000 nM; on human CB2 receptors, 6.7 nM.
On to `CC(C)(C)C(NC(=O)c1cc(OCC(F)(F)F)c(N2CC(F)(F)C2)cn1)C(N)=O` (stereo not shown) [Example 256, N-(1-amino-3,3-dimethyl-1-oxobutan-2-yl)-5-(3,3-difluoroazetidin-1-yl)-4-(2,2,2-trifluoroethoxy)pyridine-2-carboxamide], for which the EC50 on human CB1 receptors is over 10000 nM; at human CB2 receptors, 13.2 nM.
The like results for `CC(C)(C)C(NC(=O)c1cc(OCC2CC2)c(N2CC(F)(F)C2)cn1)C(N)=O` (stereo not shown) [Example 257, N-(1-amino-3,3-dimethyl-1-oxobutan-2-yl)-4-(cyclopropylmethoxy)-5-(3,3-difluoroazetidin-1-yl)pyridine-2-carboxamide] were, in that order, over 10000 nM and 3 nM.
Take `C[C@H](Oc1cc(C(=O)NC(C)(CC(N)=O)C2CC2)ncc1C1CC1)C(F)(F)F` (stereo partly drawn) [Example 258, N-(4-amino-2-cyclopropyl-4-oxobutan-2-yl)-5-cyclopropyl-4-[(2S)-1,1,1-trifluoropropan-2-yl]oxypyridine-2-carboxamide]: the 50% effective concentration (EC50) is over 10000 nM on human CB1 receptors and 13 nM at human CB2 receptors.
The like results for `C[C@H](Oc1cc(C(=O)NC(C)(CC(N)=O)C2CC2)ncc1C1CC1)C(F)(F)F` (stereo partly drawn) [Example 259, N-(4-amino-2-cyclopropyl-4-oxobutan-2-yl)-5-cyclopropyl-4-[(2S)-1,1,1-trifluoropropan-2-yl]oxypyridine-2-carboxamide] were, in that order, over 10000 nM and 0.5 nM.
The like results for `NC(=O)CC1(NC(=O)c2cc(OCC(F)(F)F)c(N3CC(F)(F)C3)cn2)CS(=O)(=O)C1` [Example 264, N-[3-(2-amino-2-oxoethyl)-1,1-dioxothietan-3-yl]-5-(3,3-difluoroazetidin-1-yl)-4-(2,2,2-trifluoroethoxy)pyridine-2-carboxamide] were, in that order, over 10000 nM and 178 nM.
With `C[C@H](Oc1cc(C(=O)NC2(CC(N)=O)CS(=O)(=O)C2)ncc1C1(F)COC1)C(F)(F)F` [Example 265, N-[3-(2-amino-2-oxoethyl)-1,1-dioxothietan-3-yl]-5-(3-fluorooxetan-3-yl)-4-[(2S)-1,1,1-trifluoropropan-2-yl]oxypyridine-2-carboxamide], the EC50 at human CB1 receptors was over 10000 nM; on human CB2 receptors, 102 nM.
In the case of `C[C@H](Oc1cc(C(=O)NC2(CC(N)=O)CS(=O)(=O)C2)ncc1C1CC1)C(F)(F)F` [Example 266, N-[3-(2-amino-2-oxoethyl)-1,1-dioxothietan-3-yl]-5-cyclopropyl-4-[(2S)-1,1,1-trifluoropropan-2-yl]oxypyridine-2-carboxamide], the concentration giving a half-maximal response (EC50) is over 10000 nM on human CB1 receptors and 1.6 nM at human CB2 receptors.
Turning to `NC(=O)CC1(NC(=O)c2cc(OCC3CC3)c(N3CC(F)(F)C3)cn2)CS(=O)(=O)C1` [Example 267, N-[3-(2-amino-2-oxoethyl)-1,1-dioxothietan-3-yl]-4-(cyclopropylmethoxy)-5-(3,3-difluoroazetidin-1-yl)pyridine-2-carboxamide], the EC50 on human CB1 receptors was over 10000 nM; on human CB2 receptors, 10.5 nM.
For the compound `NC(=O)CC1(NC(=O)c2cc(OCC(F)F)c(C3CC3)cn2)CS(=O)(=O)C1` [Example 274, N-[3-(2-amino-2-oxoethyl)-1,1-dioxothietan-3-yl]-5-cyclopropyl-4-(2,2-difluoroethoxy)pyridine-2-carboxamide], the EC50 on human CB1 receptors was over 10000 nM; at human CB2 receptors it was 10.1 nM.
`NC(=O)CC1(NC(=O)c2cc(OCCF)c(C3CC3)cn2)CS(=O)(=O)C1` [Example 281, N-[3-(2-amino-2-oxoethyl)-1,1-dioxothietan-3-yl]-5-cyclopropyl-4-(2-fluoroethoxy)pyridine-2-carboxamide]: the EC50 at human CB1 receptors was over 10000 nM; at human CB2 receptors, 23.1 nM.
On to `CNC(=O)CC1(NC(=O)c2cc(OCC(F)(F)F)c(C3CC3)cn2)CS(=O)(=O)C1` [Example 282, 5-cyclopropyl-N-[3-[2-(methylamino)-2-oxoethyl]-1,1-dioxothietan-3-yl]-4-(2,2,2-trifluoroethoxy)pyridine-2-carboxamide], for which the values for the EC50 on human CB1 receptors and on human CB2 receptors were over 10000 nM and 659 nM, respectively.
On to `CNC(=O)CC1(NC(=O)c2cc(OCC(F)(F)F)c(C3(F)CCC3)cn2)CS(=O)(=O)C1` [Example 285, 5-(1-fluorocyclobutyl)-N-[3-[2-(methylamino)-2-oxoethyl]-1,1-dioxothietan-3-yl]-4-(2,2,2-trifluoroethoxy)pyridine-2-carboxamide], for which the EC50 on human CB1 receptors was over 10000 nM; at human CB2 receptors, 1440 nM.
Consider `NC(=O)CC1(NC(=O)c2cc(OCC(F)(F)F)c(C3(F)CCC3)cn2)CS(=O)(=O)C1` [Example 286, N-[3-(2-amino-2-oxoethyl)-1,1-dioxothietan-3-yl]-5-(1-fluorocyclobutyl)-4-(2,2,2-trifluoroethoxy)pyridine-2-carboxamide], for which the EC50 at human CB1 receptors was over 10000 nM; on human CB2 receptors, 45.9 nM.
For the compound `CC(CF)Oc1cc(C(=O)NC(C)(CC(N)=O)C2CC2)ncc1C1CC1` (stereo not shown) [Example 293, N-(4-amino-2-cyclopropyl-4-oxobutan-2-yl)-5-cyclopropyl-4-(1-fluoropropan-2-yloxy)picolinamide], the half-maximal effective concentration (EC50) at human CB1 receptors is over 10000 nM; on human CB2 receptors it was 1.3 nM.
On to `CC(CF)Oc1cc(C(=O)NC(C)(CC(N)=O)C2CC2)ncc1C1CC1` (stereo not shown) [Example 294, N-(4-amino-2-cyclopropyl-4-oxobutan-2-yl)-5-cyclopropyl-4-(1-fluoropropan-2-yloxy)picolinamide], for which the results for the EC50 at human CB1 receptors and on human CB2 receptors were over 10000 nM and 0.6 nM, respectively.
On to `NC(=O)CC1(NC(=O)c2cc(OCC(F)(F)F)c(C3CCC3)cn2)CS(=O)(=O)C1` [Example 299, N-[3-(2-amino-2-oxoethyl)-1,1-dioxothietan-3-yl]-5-cyclobutyl-4-(2,2,2-trifluoroethoxy)pyridine-2-carboxamide], for which the concentration for a half-maximal effect (EC50) at human CB1 receptors was over 10000 nM; on human CB2 receptors, 2 nM.
In the same order, the values of `CC(CC(N)=O)(NC(=O)c1cc(OCC(F)(F)F)c(C2(F)CCC2)cn1)C1CC1` (stereo not shown) [Example 300, N-(4-amino-2-cyclopropyl-4-oxobutan-2-yl)-5-(1-fluorocyclobutyl)-4-(2,2,2-trifluoroethoxy)picolinamide] are over 10000 nM and 6.7 nM.
Regarding `C[C@H](Oc1cc(C(=O)NC2(CC(N)=O)CS(=O)(=O)C2)ncc1C1(F)CCC1)C(F)(F)F` [Example 305, N-[3-(2-amino-2-oxoethyl)-1,1-dioxothietan-3-yl]-5-(1-fluorocyclobutyl)-4-[(2S)-1,1,1-trifluoropropan-2-yl]oxypyridine-2-carboxamide], the EC50 is over 10000 nM on human CB1 receptors and 5.1 nM on human CB2 receptors.
Regarding `NC(=O)CC1(NC(=O)c2cc(OCC(F)F)c(C3(F)CCC3)cn2)CS(=O)(=O)C1` [Example 308, N-[3-(2-amino-2-oxoethyl)-1,1-dioxothietan-3-yl]-4-(2,2-difluoroethoxy)-5-(1-fluorocyclobutyl)pyridine-2-carboxamide], the EC50 at human CB1 receptors is over 10000 nM; on human CB2 receptors, 73 nM.
